Data: ChEMBL document CHEMBL5715954, “Silencing c-Myc translation as a therapeutic strategy through targeting PI3Kδ and CK1ε in hematological malignancies” (Blood, 2017)

Key:
Set-up in all cases: scale not given: the % may be the effect or the level left
[1] = target: T1, Calcium/calmodulin-dependent protein kinase type IV (Homo sapiens) (UniProt Q16566); test: Inhibition of human CAMK4 assessed as enzyme activity at 1 uM using KKLNRTLSFAEPG as substrate preincubated for 20 mins followed by [gamma-33P]-ATP addition and measured after 120 mins by radiometric Hot-SpotSM Kinase assay relative to control
T1 sequence (whole entry): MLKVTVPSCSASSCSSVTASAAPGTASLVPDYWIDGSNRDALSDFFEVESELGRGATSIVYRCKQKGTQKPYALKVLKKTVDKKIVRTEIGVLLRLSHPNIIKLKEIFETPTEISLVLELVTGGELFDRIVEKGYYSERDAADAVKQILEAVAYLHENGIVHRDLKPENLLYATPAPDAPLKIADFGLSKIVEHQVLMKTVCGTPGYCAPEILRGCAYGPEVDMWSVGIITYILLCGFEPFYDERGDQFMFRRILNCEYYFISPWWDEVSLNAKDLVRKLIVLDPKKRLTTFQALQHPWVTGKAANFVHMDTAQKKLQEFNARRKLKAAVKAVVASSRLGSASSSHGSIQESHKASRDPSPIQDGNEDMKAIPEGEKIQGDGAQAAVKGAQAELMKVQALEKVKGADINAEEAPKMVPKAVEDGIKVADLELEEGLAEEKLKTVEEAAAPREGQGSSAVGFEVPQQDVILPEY

[2] = target: T2, Dual specificity tyrosine-phosphorylation-regulated kinase 2 (Homo sapiens) (UniProt Q92630); test: Inhibition of human DYRK2 assessed as enzyme activity at 1 uM using RRRFRPASPLRGPPK as substrate preincubated for 20 mins followed by [gamma-33P]-ATP addition and measured after 120 mins by radiometric Hot-SpotSM Kinase assay relative to control
T2 sequence (whole entry): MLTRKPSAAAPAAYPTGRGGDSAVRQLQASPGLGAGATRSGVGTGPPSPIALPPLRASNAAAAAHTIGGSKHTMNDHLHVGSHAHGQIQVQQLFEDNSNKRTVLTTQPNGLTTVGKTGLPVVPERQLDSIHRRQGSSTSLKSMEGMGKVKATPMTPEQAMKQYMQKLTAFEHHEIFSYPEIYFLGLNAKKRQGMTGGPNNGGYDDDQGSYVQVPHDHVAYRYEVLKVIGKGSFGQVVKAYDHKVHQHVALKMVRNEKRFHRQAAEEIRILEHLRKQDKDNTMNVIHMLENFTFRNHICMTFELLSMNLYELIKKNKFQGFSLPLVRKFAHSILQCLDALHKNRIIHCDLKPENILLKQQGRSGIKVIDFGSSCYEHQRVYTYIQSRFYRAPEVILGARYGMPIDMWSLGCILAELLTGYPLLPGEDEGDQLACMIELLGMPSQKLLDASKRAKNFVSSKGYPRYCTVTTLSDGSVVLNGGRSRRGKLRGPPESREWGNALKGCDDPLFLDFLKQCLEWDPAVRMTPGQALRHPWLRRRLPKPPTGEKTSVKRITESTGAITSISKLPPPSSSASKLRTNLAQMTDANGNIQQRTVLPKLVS

[3] = target: T3, Cytoplasmic tyrosine-protein kinase BMX (Homo sapiens) (UniProt P51813); test: Inhibition of human BMX assessed as enzyme activity at 1 uM using poly[Glu:Tyr] (4:1) as substrate preincubated for 20 mins followed by [gamma-33P]-ATP addition and measured after 120 mins by radiometric Hot-SpotSM Kinase assay relative to control
T3 sequence (whole entry): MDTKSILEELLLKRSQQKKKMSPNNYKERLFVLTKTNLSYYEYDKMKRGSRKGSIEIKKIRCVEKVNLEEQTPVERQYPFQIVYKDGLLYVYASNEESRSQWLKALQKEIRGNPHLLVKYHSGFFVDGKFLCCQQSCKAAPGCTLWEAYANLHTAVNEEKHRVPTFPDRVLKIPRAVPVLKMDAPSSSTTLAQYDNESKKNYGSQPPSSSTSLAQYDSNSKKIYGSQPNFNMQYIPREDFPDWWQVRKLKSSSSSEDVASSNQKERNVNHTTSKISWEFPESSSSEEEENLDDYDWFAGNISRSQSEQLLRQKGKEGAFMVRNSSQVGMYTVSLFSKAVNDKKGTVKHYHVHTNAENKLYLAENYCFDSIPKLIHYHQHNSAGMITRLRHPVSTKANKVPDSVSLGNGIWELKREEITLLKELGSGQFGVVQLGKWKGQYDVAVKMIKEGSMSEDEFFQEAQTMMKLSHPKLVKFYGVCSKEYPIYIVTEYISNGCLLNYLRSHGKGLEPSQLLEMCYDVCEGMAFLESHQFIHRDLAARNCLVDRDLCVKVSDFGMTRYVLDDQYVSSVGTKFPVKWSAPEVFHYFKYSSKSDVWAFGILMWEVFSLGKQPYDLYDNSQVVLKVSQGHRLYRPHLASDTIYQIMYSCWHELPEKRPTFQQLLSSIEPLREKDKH

[4] = target: T4, cGMP-dependent protein kinase 2 (Homo sapiens) (UniProt Q13237); test: Inhibition of human PKG2 assessed as enzyme activity at 1 uM using LRRASLG as substrate preincubated for 20 mins followed by [gamma-33P]-ATP addition and measured after 120 mins by radiometric Hot-SpotSM Kinase assay relative to control
T4 sequence (whole entry): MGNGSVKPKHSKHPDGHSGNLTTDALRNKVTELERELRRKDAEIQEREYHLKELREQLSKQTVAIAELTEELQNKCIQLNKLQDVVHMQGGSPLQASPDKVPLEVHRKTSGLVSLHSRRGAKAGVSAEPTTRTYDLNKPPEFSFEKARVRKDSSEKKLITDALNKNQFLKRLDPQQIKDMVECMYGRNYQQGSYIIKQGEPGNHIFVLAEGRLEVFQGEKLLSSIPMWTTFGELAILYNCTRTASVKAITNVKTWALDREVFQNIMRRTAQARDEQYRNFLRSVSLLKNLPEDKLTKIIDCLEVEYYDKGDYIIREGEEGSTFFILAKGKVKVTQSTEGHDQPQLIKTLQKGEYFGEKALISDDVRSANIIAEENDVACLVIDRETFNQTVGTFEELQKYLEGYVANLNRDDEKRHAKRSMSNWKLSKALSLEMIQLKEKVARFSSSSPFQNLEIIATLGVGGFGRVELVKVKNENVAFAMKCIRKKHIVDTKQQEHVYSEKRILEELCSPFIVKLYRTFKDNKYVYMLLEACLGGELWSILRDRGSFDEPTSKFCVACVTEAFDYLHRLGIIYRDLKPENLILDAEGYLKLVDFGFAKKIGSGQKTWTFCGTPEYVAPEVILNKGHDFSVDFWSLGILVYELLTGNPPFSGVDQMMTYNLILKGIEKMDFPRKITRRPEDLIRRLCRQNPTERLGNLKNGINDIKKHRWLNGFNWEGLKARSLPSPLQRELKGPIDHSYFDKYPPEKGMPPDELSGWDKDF

[5] = target: Ephrin type-A receptor 2 (Homo sapiens) (UniProt P29317); test: Inhibition of human EPHA2 assessed as enzyme activity at 1 uM using poly[Glu:Tyr] (4:1) as substrate preincubated for 20 mins followed by [gamma-33P]-ATP addition and measured after 120 mins by radiometric Hot-SpotSM Kinase assay relative to control
Sequence of Ephrin type-A receptor 2 (Homo sapiens) (P29317 whole entry): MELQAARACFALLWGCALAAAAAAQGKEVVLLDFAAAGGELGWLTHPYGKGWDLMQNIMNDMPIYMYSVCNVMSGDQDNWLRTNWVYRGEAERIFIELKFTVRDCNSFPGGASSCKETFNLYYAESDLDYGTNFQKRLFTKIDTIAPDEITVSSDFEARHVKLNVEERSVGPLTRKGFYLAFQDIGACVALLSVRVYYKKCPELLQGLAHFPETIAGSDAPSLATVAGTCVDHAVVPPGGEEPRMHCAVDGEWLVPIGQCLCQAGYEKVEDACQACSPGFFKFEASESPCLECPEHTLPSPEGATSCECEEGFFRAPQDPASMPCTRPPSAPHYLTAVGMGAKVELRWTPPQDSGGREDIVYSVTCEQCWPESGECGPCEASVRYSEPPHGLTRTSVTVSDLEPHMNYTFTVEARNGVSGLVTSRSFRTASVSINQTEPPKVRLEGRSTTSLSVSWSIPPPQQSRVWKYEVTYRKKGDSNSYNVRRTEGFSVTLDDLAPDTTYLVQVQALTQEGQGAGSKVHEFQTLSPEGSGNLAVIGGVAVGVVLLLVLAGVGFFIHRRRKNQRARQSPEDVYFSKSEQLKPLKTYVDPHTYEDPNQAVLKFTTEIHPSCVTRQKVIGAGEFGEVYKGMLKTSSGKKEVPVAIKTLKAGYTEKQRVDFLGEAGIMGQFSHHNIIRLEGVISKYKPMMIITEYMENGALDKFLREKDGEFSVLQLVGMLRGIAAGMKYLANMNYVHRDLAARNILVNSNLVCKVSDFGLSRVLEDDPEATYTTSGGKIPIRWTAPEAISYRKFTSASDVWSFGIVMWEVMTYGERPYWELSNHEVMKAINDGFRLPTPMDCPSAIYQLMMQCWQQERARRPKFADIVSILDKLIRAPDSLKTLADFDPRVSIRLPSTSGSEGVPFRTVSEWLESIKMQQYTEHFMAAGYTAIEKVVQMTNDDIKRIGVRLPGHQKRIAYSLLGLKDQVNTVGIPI

Compound | Activity [1] | Activity [2] | Activity [3] | Activity [4] | Activity [5]
C[C@H](Nc1ncnc2nc[nH]c12)c1cc2cccc(Cl)c2c(=O)n1-c1ccccc1 | 80.7% | 99% | 86.4% | 99.8% | 96.3%
CC[C@H](Nc1ncnc2[nH]cnc12)c1nc2cccc(F)c2c(=O)n1-c1ccccc1 | 82.5% | 99% | 87.8% | 99.7% | 97%
CC(C)Oc1ccc(-c2nn([C@@H](C)c3oc4ccc(F)cc4c(=O)c3-c3cccc(F)c3)c3ncnc(N)c23)cc1F [UMBRALISIB] | 75.4% | 99.2% | 87.3% | 102% | 97.2%
